Assay results published in paper PMC8419995, “In vitro and in vivo efficacy of thiacloprid against Echinococcus multilocularis” (Parasites & Vectors, 2021).

What was measured:
[1] = tested on: E. multilocularis metacestodes; test: PGI assay (phosphoglucose isomerase release) on metacestode vesicles; assay type: cell-based, Echinococcus multilocularis
Protocol: The efficacy of thiacloprid against the E. multilocularis metacestode was evaluated by applying a phosphoglucose isomerase (PGI) assay that measures the release of the enzyme phosphoglucose isomerase upon physical impairment of metacestodes. In brief, medium without phenol red (DMEM, 1% penicillin/streptomycin sulfate, 2 mM L-glutamine) was added to the same volume of vesicles and distributed to 48-well (12–15 per vesicles) plates. Subsequently, metacestodes were incubated for 5 days with different concentrations (0, 0.06, 1.2, 2.5, 5, 10, 20, 40, 80 and 160 μM) of thiacloprid or praziquantel (PZQ), after which PGI release was quantified exactly as described in Stadelmann et al.. Triton X-100 (0.1% in PBS) was applied as a positive control (maximal release of vesicle fluid). Each condition was tested in biological triplicate. After 5 days of incubation, 200 μl medium supernatant was collected from each well and stored at − 20 °C until further measurements were performed. PGI measurements were performed as described earlier, except that an Infinite M200 PRO reader (Tecan, Männedorf, Switzerland) was used to measure the increase in absorbance at 340 nm. PGI activity was calculated using the EC50 calculator (https://www.aatbio.com/tools/ec50-calculator) from the linear regression of the enzyme reaction over time and presented as a percentage relative to the values obtained by treatment of vesicles with 0.1% Triton X-100.

[2] = tested on: E. multilocularis protoscoleces; test: Protoscolex viability, 0.1% eosin exclusion test; assay type: cell-based, Echinococcus multilocularis
Protocol: Viable protoscoleces were cultured in Medium 199, supplemented with 1% penicillin–streptomycin, 50 μg/ml gentamicin and 4 mg/ml glucose according to a previously described method. […] PZQ was used as a positive control. The protoscoleces were cultured in an incubator at 37 °C and 5% CO2 for 7 days. Additionally, 0.1% eosin exclusion test was used to evaluate the viability of protoscoleces. To reduce the bias as much as possible, protoscolex viability was observed by two experimenters under double-blind conditions. Each experiment was conducted three times.

[3] = tested on: E. multilocularis protoscoleces and germinal cells; test: Glucose consumption (2-deoxyglucose uptake); assay type: cell-based, Echinococcus multilocularis
Protocol: Glucose consumption in E. multilocularis protoscoleces and germinal cells was detected using the Screen Quest Colorimetric Glucose Uptake Assay Kit (AAT Bioquest, Sunnyvale, CA, USA). The newly separated protoscoleces were washed twice with Krebs–ringer phosphate HEPES (KRPH) buffer and then resuspended in 1 ml glucose uptake buffer for 1 h. Each well contained about 200 protoscoleces. Isolated E. multilocularis germinal cells were resuspended with serum-free DMEM and cultured overnight in nitrogen at 37 °C. Germinal cells were then washed twice with KPRH buffer and resuspended in 90 μl glucose uptake buffer for 1 h. Subsequently, the protoscoleces and germinal cells were added with 10 μl thiacloprid (5 μM) for 1 h, and treated with 10 μl 2-deoxyglucose (2DG) for 1 h. The germinating cells treated with thiacloprid were labeled with mitochondria red fluorescent probe (Beyotime, Shanghai, China) and the percentage of living cells was measured by flow cytometry. The protoscoleces and germinal cells were washed twice with KRPH buffer and then lysed with 25 μl acidic lysis buffer in an Eppendorf tube (EP) for 30 min. A neutralizing buffer was added to each well and left at room temperature for 20 min to neutralize the lysate. […] Lastly, the mixture was transferred to a 96-well cell culture plate and the absorbance was measured at 570 nm using an Infinite M200 PRO reader (Tecan). […]

[4] = tested on: T lymphocyte subsets in metacestodes and spleen; test: T lymphocyte subset analysis and spleen index in infected mice; assay type: in vivo; details: infected BALB/c mice; 6 weeks oral treatment; flow cytometry
Protocol: In vitro-grown metacestode vesicles were pressed through a 500 µm mesh and washed three times with sterile PBS. The parasite tissue was then taken up in an equal volume of sterile PBS. Each mouse was intraperitoneally injected with 200 μl suspension. Seven mice were injected with 200 μl PBS as the control group. Twenty-eight infected mice were randomly distributed into four groups (7 mice/group): the untreated group was not administered any drug; the ABZ group was treated with ABZ orally (100 mg/kg/day); and the Thia15 group and Thia30 group received thiacloprid orally (15 mg/kg/day and 30 mg/kg/day). Treatments of mice started 2 weeks post-infection, and treatments were administered daily for 6 weeks. […] All metacestode tissues were collected, and the total wet weight of metacestodes per mice was determined. Furthermore, the content of cytokines in microcyst fluid was detected by enzyme-linked immunosorbent assay (ELISA). […]
The spleens of mice were removed and then weighed to calculate the spleen index. […] The lymphocytes were incubated with FITC-conjugated anti-CD3 (BioLegend, San Diego, CA, USA), PE-conjugated anti-CD4 (BioLegend), and APC-conjugated anti-CD8 (BioLegend) antibodies, and then analyzed by flow cytometry using a NovoCyte flow cytometer (ACEA/Agilent, Santa Clara, CA, USA).

[5] = set-up: method as in PMID 32229153; details: mice; cited from earlier work
[6] = set-up: method as in PMID 21786385; details: cited from earlier work

## N#C/N=C1\SCCN1Cc1ccc(Cl)nc1 [thiacloprid]
[1]; 20 μM, 5 days and 12 days, active if exceeding 20% relative PGI release
  Activity in PGI assay screening: showed activity
[1]; Echinococcus multilocularis, 120 h, read-out: EC50 against E. multilocularis metacestode by the PGI assay
  EC50: 4.54 ± 1.1 µM
[2]; 1.2 μM
  Effect on protoscolex viability: no significant effect
[2]; 5 μM for 4 days
  Dead protoscoleces: 47.33 ± 4.04%
[3]; 5 μM, 1 h
  Uptake of 2-DG by protoscoleces and germinal cells: reduced uptake
[3]; treatment for 1 h
  Viability of protoscoleces and germinal cells: not affected
[4]
  CD4+ T lymphocytes in the metacestodes and spleen compared with the untreated group: increased
  CD8+ T lymphocytes in the metacestodes and spleen compared with the untreated group: decreased
[5]
  Dose that induced obvious hepatocellular hypertrophy and cytoplasm degeneration: more than 108 mg/kg
[6]
  Dose that can cause hepatocellular necrosis and hydropic degeneration: 22.5 mg/kg
